Experimental data as given in publication PMC9250534, “Synthesis and direct assay of large macrocycle diversities by combinatorial late-stage modification at picomole scale” (Nature Communications, 2022).
Numbered stars: 1 amine (or outer) side, 2 acyl side, 3 side chain; on linkers, the order of the positions; unused ones are H or OH. Bridge positions count the residues as written; N and C are the ends. Square brackets hold non-standard residues; d marks the D form. Peptide text beside a SMILES is read from it. * marks the point of attachment. ξ: configuration not given here. ξPro(4ξ-NHCOC6H4-4-Cl) = O=C(NC1CNC(C(=O)O)C1)c1ccc(Cl)cc1; 2Thenoyl(5-Cl) = O=C(c1ccc(Cl)s1)*; Benzoyl(4-Cl) = O=C(c1ccc(Cl)cc1)*; Cysteamide = C(CS[*:3])N[*:1]; X1 = O=C(/C=C/c1ccccc1)*; Api = NC1(C(=O)O)CCNCC1; Dap = NC[CH](N)C(=O)O; X2 = O=C(C=Cc1ccccc1)*; Mpa = O=C(O)CCS

Biological target: MDM2 (Homo sapiens, UniProt Q00987)
Test: MDM2 binding screen: displacement of fluorescent p53 peptide probe FP53 (fluorescence polarization)
Settings: crude macrocycle reactions; for fraction fluorescent probe displaced, Screen: initial screen
Experimental: We screened Library 2 in 384-microwell plates by dispensing the target protein MDM2 and reporter peptide into the wells containing the macrocycle reactions.
The products were screened for displacement of a p53-based fluorescent peptide from human MDM2. Final macrocycle concentrations were 10 µM. For each macrocycle, the MDM2 binding was measured once.
One fluorescence anisotropy reading was taken with a Tecan Infinite F200 Pro fluorescence plate reader (excitation at 485 nm, emission at 535 nm) at 25 °C. Data was collected and exported using the Tecan Infinite M200 Pro instrument software. The data was analyzed by Excel (version 2016).

Chain of MDM2 (Q00987 whole entry): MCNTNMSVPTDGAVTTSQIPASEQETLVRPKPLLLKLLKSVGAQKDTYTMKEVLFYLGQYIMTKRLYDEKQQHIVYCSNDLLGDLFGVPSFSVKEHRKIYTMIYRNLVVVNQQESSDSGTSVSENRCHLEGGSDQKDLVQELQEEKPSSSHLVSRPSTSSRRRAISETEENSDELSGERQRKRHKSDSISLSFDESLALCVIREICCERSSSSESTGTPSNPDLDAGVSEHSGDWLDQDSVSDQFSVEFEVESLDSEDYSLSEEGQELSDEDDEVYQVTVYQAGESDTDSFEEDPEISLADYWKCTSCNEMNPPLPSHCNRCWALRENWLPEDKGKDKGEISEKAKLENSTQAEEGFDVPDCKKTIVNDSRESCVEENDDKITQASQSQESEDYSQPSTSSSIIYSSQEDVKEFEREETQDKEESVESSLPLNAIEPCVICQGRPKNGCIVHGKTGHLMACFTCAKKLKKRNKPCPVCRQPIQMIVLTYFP

fraction fluorescent probe displaced, Screen (Acid 91)	fraction fluorescent probe displaced, Replicate (Acid 91)	fraction fluorescent probe displaced, Screen (Acid 14)	fraction fluorescent probe displaced, Replicate (Acid 14)	SMILES	also measured
–	–	–	–	O=C1NC2(CCN(C(=O)c3ccc(Cl)cc3)CC2)C(=O)NCCSSCCC(=O)N2CCC[C@H]2C(=O)N[C@H]1Cc1ccccc1 [X B1 F D6 Acid 25] ([Mpa]PF[Api](Benzoyl(4-Cl))-Cysteamide; disulfide 1-C)	fraction fluorescent probe displaced, Screen (Acid 25): 0.09; fraction fluorescent probe displaced, Replicate (Acid 25): 0.15
0.00268	0.04	–	–	O=C1NC2(CCN(C(=O)C=Cc3ccccc3)CC2)C(=O)NCCSSCCC(=O)N2CCCC2C(=O)NC1Cc1ccccc1 (centres unmarked) [X B1 F D6 Acid 91] ([Mpa]PF[Api](X2)-Cysteamide; disulfide 1-C; configuration not given here)	–
–	–	0.053	0.12	O=C1NC(Cc2ccccc2)C(=O)N2CCN(C(=O)c3ccc(Cl)s3)CC2C(=O)NCCSSCCC(=O)N2CCCC12 (centres unmarked) [X B1 F D7 Acid 14]	–
–	–	–	–	O=C1NC(Cc2ccccc2)C(=O)N2CCN(C(=O)c3ccc(Cl)cc3)CC2C(=O)NCCSSCCC(=O)N2CCCC12 (centres unmarked) [X B1 F D7 Acid 25]	fraction fluorescent probe displaced, Screen (Acid 25): 0.0244; fraction fluorescent probe displaced, Replicate (Acid 25): 0.12
–	–	0.23	0.15	O=C(NCC1NC(=O)C(Cc2c[nH]c3ccccc23)NC(=O)C2CCCN2C(=O)CCSSCCNC1=O)c1ccc(Cl)s1 (centres unmarked) [X B1 W D3 Acid 14] ([Mpa]PW[Dap](2Thenoyl(5-Cl))-Cysteamide; disulfide 1-C; configuration not given here)	–
–	–	–	–	O=C(NC[C@@H]1NC(=O)[C@H](Cc2c[nH]c3ccccc23)NC(=O)[C@@H]2CCCN2C(=O)CCSSCCNC1=O)c1ccc(Cl)cc1 [X B1 W D3 Acid 25] ([Mpa]PW[Dap](Benzoyl(4-Cl))-Cysteamide; disulfide 1-C)	fraction fluorescent probe displaced, Screen (Acid 25): 0.25; fraction fluorescent probe displaced, Replicate (Acid 25): 0.25
0.08	0.04	–	–	O=C(/C=C/c1ccccc1)NC[C@@H]1NC(=O)[C@H](Cc2c[nH]c3ccccc23)NC(=O)[C@@H]2CCCN2C(=O)CCSSCCNC1=O [X B1 W D3 Acid 91] ([Mpa]PW[Dap](X1)-Cysteamide; disulfide 1-C)	–
–	–	–	–	O=C(NC1CC2C(=O)NCCSSCCC(=O)N3CCCC3C(=O)NC(Cc3c[nH]c4ccccc34)C(=O)N2C1)c1ccc(Cl)cc1 (centres unmarked) [X B1 W D5 Acid 25] ([Mpa]PW[ξPro(4ξ-NHCOC6H4-4-Cl)]-Cysteamide; disulfide 1-C; configuration not given here)	fraction fluorescent probe displaced, Screen (Acid 25): 0.15; fraction fluorescent probe displaced, Replicate (Acid 25): 0.20
–	–	0.20	0.12	O=C1NC2(CCN(C(=O)c3ccc(Cl)s3)CC2)C(=O)NCCSSCCC(=O)N2CCC[C@H]2C(=O)N[C@H]1Cc1c[nH]c2ccccc12 [X B1 W D6 Acid 14] ([Mpa]PW[Api](2Thenoyl(5-Cl))-Cysteamide; disulfide 1-C)	–
0.14	0.07	–	–	O=C1NC2(CCN(C(=O)/C=C/c3ccccc3)CC2)C(=O)NCCSSCCC(=O)N2CCC[C@H]2C(=O)N[C@H]1Cc1c[nH]c2ccccc12 [X B1 W D6 Acid 91] ([Mpa]PW[Api](X1)-Cysteamide; disulfide 1-C)	–
–	–	0.08	0.15	O=C1NC(Cc2c[nH]c3ccccc23)C(=O)N2CCN(C(=O)c3ccc(Cl)s3)CC2C(=O)NCCSSCCC(=O)N2CCCC12 (centres unmarked) [X B1 W D7 Acid 14]	–
–	–	-0.00483	0.0465	O=C1CCSSCCNC(=O)[C@H](Cc2ccccc2)NC(=O)[C@H](CNC(=O)c2ccc(Cl)s2)NC(=O)CCN1 [X B2 D3 F Acid 14]	–
–	–	–	–	O=C1CCSSCCNC(=O)[C@H](Cc2ccccc2)NC(=O)[C@H](CNC(=O)c2ccc(Cl)cc2)NC(=O)CCN1 [X B2 D3 F Acid 25]	fraction fluorescent probe displaced, Screen (Acid 25): 0.0244; fraction fluorescent probe displaced, Replicate (Acid 25): -0.0552
0.0563	-0.00827	–	–	O=C(/C=C/c1ccccc1)NC[C@@H]1NC(=O)CCNC(=O)CCSSCCNC(=O)[C@H](Cc2ccccc2)NC1=O [X B2 D3 F Acid 91]	–
–	–	–	–	O=C1CCSSCCNC(=O)[C@H](Cc2c[nH]c3ccccc23)NC(=O)[C@H](CNC(=O)c2ccc(Cl)cc2)NC(=O)CCN1 [X B2 D3 W Acid 25]	fraction fluorescent probe displaced, Screen (Acid 25): 0.19; fraction fluorescent probe displaced, Replicate (Acid 25): 0.22
0.27	0.14	–	–	O=C(/C=C/c1ccccc1)NC[C@@H]1NC(=O)CCNC(=O)CCSSCCNC(=O)[C@H](Cc2c[nH]c3ccccc23)NC1=O [X B2 D3 W Acid 91]	–
–	–	0.16	0.05	O=C1CCSSCCNC(=O)[C@H](Cc2ccccc2)NC(=O)[C@@H]2C[C@H](NC(=O)c3ccc(Cl)s3)CN2C(=O)CCN1 [X B2 D5 F Acid 14]	–
–	–	–	–	O=C1CCSSCCNC(=O)C(Cc2ccccc2)NC(=O)C2CC(NC(=O)c3ccc(Cl)cc3)CN2C(=O)CCN1 (centres unmarked) [X B2 D5 F Acid 25]	fraction fluorescent probe displaced, Screen (Acid 25): 0.16; fraction fluorescent probe displaced, Replicate (Acid 25): 0.05
-0.17	-0.08	–	–	O=C(C=Cc1ccccc1)NC1CC2C(=O)NC(Cc3ccccc3)C(=O)NCCSSCCC(=O)NCCC(=O)N2C1 (centres unmarked) [X B2 D5 F Acid 91]	–

fraction fluorescent probe displaced, Screen (Acid 91)	fraction fluorescent probe displaced, Replicate (Acid 91)	fraction fluorescent probe displaced, Screen (Acid 14)	fraction fluorescent probe displaced, Replicate (Acid 14)	SMILES	also measured
–	–	0.11	0.17	O=C1CCSSCCNC(=O)C(Cc2c[nH]c3ccccc23)NC(=O)C2CC(NC(=O)c3ccc(Cl)s3)CN2C(=O)CCN1 (centres unmarked) [X B2 D5 W Acid 14]	–
0.03	0.0168	–	–	O=C(C=Cc1ccccc1)NC1CC2C(=O)NC(Cc3c[nH]c4ccccc34)C(=O)NCCSSCCC(=O)NCCC(=O)N2C1 (centres unmarked) [X B2 D5 W Acid 91]	–
–	–	0.13	0.0229	O=C1CCSSCCNC(=O)[C@H](Cc2ccccc2)NC(=O)C2(CCN(C(=O)c3ccc(Cl)s3)CC2)NC(=O)CCN1 [X B2 D6 F Acid 14]	–
0.16	0.07	–	–	O=C1CCSSCCNC(=O)[C@H](Cc2c[nH]c3ccccc23)NC(=O)C2(CCN(C(=O)/C=C/c3ccccc3)CC2)NC(=O)CCN1 [X B2 D6 W Acid 91]	–
–	–	0.17	0.07	O=C1CCSSCCNC(=O)C(Cc2c[nH]c3ccccc23)NC(=O)C2CN(C(=O)c3ccc(Cl)s3)CCN2C(=O)CCN1 (centres unmarked) [X B2 D7 W Acid 14]	–
0.14	0.07	–	–	O=C1CCSSCCNC(=O)C(Cc2c[nH]c3ccccc23)NC(=O)C2CN(C(=O)C=Cc3ccccc3)CCN2C(=O)CCN1 (centres unmarked) [X B2 D7 W Acid 91]	–
–	–	0.0241	0.12	O=C1CCSSCCNC(=O)[C@H](CNC(=O)c2ccc(Cl)s2)NC(=O)[C@H](Cc2ccccc2)NC(=O)CCN1 [X B2 F D3 Acid 14]	–
–	–	–	–	O=C1CCSSCCNC(=O)[C@H](CNC(=O)c2ccc(Cl)cc2)NC(=O)[C@H](Cc2ccccc2)NC(=O)CCN1 [X B2 F D3 Acid 25]	fraction fluorescent probe displaced, Screen (Acid 25): 0.0569; fraction fluorescent probe displaced, Replicate (Acid 25): -0.03
0.03	-0.11	–	–	O=C(/C=C/c1ccccc1)NC[C@@H]1NC(=O)[C@H](Cc2ccccc2)NC(=O)CCNC(=O)CCSSCCNC1=O [X B2 F D3 Acid 91]	–
–	–	0.14	0.07	O=C1CCSSCCNC(=O)C2CC(NC(=O)c3ccc(Cl)s3)CN2C(=O)C(Cc2ccccc2)NC(=O)CCN1 (centres unmarked) [X B2 F D5 Acid 14]	–
0.00268	-0.08	–	–	O=C(C=Cc1ccccc1)NC1CC2C(=O)NCCSSCCC(=O)NCCC(=O)NC(Cc3ccccc3)C(=O)N2C1 (centres unmarked) [X B2 F D5 Acid 91]	–
–	–	0.08	0.12	O=C1CCSSCCNC(=O)C2(CCN(C(=O)c3ccc(Cl)s3)CC2)NC(=O)[C@H](Cc2ccccc2)NC(=O)CCN1 [X B2 F D6 Acid 14]	–
–	–	–	–	O=C1CCSSCCNC(=O)C2(CCN(C(=O)c3ccc(Cl)cc3)CC2)NC(=O)[C@H](Cc2ccccc2)NC(=O)CCN1 [X B2 F D6 Acid 25]	fraction fluorescent probe displaced, Screen (Acid 25): -0.17; fraction fluorescent probe displaced, Replicate (Acid 25): 0.0465
0.0563	0.12	–	–	O=C1CCSSCCNC(=O)C2(CCN(C(=O)/C=C/c3ccccc3)CC2)NC(=O)[C@H](Cc2ccccc2)NC(=O)CCN1 [X B2 F D6 Acid 91]	–
0.03	-0.00827	–	–	O=C1CCSSCCNC(=O)C2CN(C(=O)C=Cc3ccccc3)CCN2C(=O)C(Cc2ccccc2)NC(=O)CCN1 (centres unmarked) [X B2 F D7 Acid 91]	–
–	–	–	–	O=C1CCSSCCNC(=O)[C@H](CNC(=O)c2ccc(Cl)cc2)NC(=O)[C@H](Cc2c[nH]c3ccccc23)NC(=O)CCN1 [X B2 W D3 Acid 25]	fraction fluorescent probe displaced, Screen (Acid 25): 0.19; fraction fluorescent probe displaced, Replicate (Acid 25): 0.22
0.14	0.07	–	–	O=C(/C=C/c1ccccc1)NC[C@@H]1NC(=O)[C@H](Cc2c[nH]c3ccccc23)NC(=O)CCNC(=O)CCSSCCNC1=O [X B2 W D3 Acid 91]	–
–	–	0.11	0.15	O=C1CCSSCCNC(=O)[C@@H]2C[C@H](NC(=O)c3ccc(Cl)s3)CN2C(=O)[C@H](Cc2c[nH]c3ccccc23)NC(=O)CCN1 [X B2 W D5 Acid 14]	–
